Measured values as given in patent US10076116B2, “N-cycloalkyl-N-(biheterocyclymethylene)-(thio)carboxamide derivatives” (BAYER CROPSCIENCE AKTIENGESELLSCHAFT, priority 2013, dated 2018).

Columns and labels:
[1] = log P by HPLC on reversed-phase column (C 18), EEC Directive 79/831 Annex V.A8; type: physicochemical; details: HPLC C 18, 40° C., 0.1% aqueous formic acid and acetonitrile, gradient 10% to 90% acetonitrile
Procedure: In table 1, the log P values were determined in accordance with EEC Directive 79/831 Annex V.A8 by HPLC (High Performance Liquid Chromatography) on a reversed-phase column (C 18), using the method described below: Temperature: 40° C.; Mobile phases: 0.1% aqueous formic acid and acetonitrile; linear gradient from 10% acetonitrile to 90% acetonitrile. Calibration was carried out using unbranched alkan-2-ones (comprising 3 to 16 carbon atoms) with known log P values (determination of the log P values by the retention times using linear interpolation between two successive alkanones). lambda-max-values were determined using UV-spectra from 200 nm to 400 nm and the peak values of the chromatographic signals.

Puccinia recondita = assay: In vivo preventive test on Puccinia recondita (brown rust on wheat)
Procedure: Example C: In Vivo Preventive Test on Puccinia recondita (Brown Rust on Wheat) […]
The young plants of wheat are treated by spraying the active ingredient prepared as described above. […]
After 24 hours, the plants are contaminated by spraying the leaves with an aqueous suspension of Puccinia recondita spores. The contaminated wheat plants are incubated for 24 hours at 20° C. and at 100% relative humidity and then for 10 days at 20° C. and at 70-80% relative humidity.
The test is evaluated 11 days after the inoculation. 0% means an efficacy which corresponds to that of the control plants while an efficacy of 100% means that no disease is observed.

Botrytis cinerea = assay: In vivo preventive test on Botrytis cinerea (grey mould); details: gherkin; for protection: dose of 500 and 100 ppm of active ingredient
Procedure: Example B: In Vivo Preventive Test Botrvtis Cinerea (Grey Mould) Solvent: 5% by volume of Dimethyl sulfoxide • 10% by volume of Acetone Emulsifier: 1 μL of TWEEN® 80 per mg of active ingredient The active ingredients are made soluble and homogenized in a mixture of Dimethyl sulfoxide/Acetone/TWEEN® 80 and then diluted in water to the desired concentration. The young plants of gherkin are treated by spraying the active ingredient prepared as described above. Control plants are treated only with an aqueous solution of Acetone/Dimethyl sulfoxide/TWEEN® 80. After 24 hours, the plants are contaminated by spraying the leaves with an aqueous suspension of Botrytis cinerea spores. The contaminated gherkin plants are incubated for 4 to 5 days at 17° C. and at 90% relative humidity. The test is evaluated 4 to 5 days after the inoculation. 0% means an efficacy which corresponds to that of the control plants while an efficacy of 100% means that no disease is observed.

Uromyces appendiculatus = assay: In vivo preventive test on Uromyces appendiculatus (bean rust)
Procedure: Example G: In Vivo Preventive Test on Uromvces Appendiculatus (Bean Rust) Solvent: 5% by volume of Dimethyl sulfoxide • 10% by volume of Acetone Emulsifier: 1 μL of TWEEN® 80 per mg of active ingredient The active ingredients are made soluble and homogenized in a mixture of Dimethyl sulfoxide/Acetone/TWEEN® 80 and then diluted in water to the desired concentration. The young plants of bean are treated by spraying the active ingredient prepared as described above. Control plants are treated only with an aqueous solution of Acetone/Dimethyl sulfoxide/TWEEN® 80. After 24 hours, the plants are contaminated by spraying the leaves with an aqueous suspension of Uromyces appendiculatus spores. The contaminated bean plants are incubated for 24 hours at 20° C. and at 100% relative humidity and then for 10 days at 20° C. and at 70-80% relative humidity. The test is evaluated 11 days after the inoculation. 0% means an efficacy which corresponds to that of the control plants while an efficacy of 100% means that no disease is observed.

[2] = wheat, compounds of this patent
[3] = dose 100 ppm, wheat, compounds of this patent
[4] = dose 500 ppm, wheat, compounds of this patent
[5] = dose 500 ppm, in very similar conditions, prior-art analogues
[6] = dose 125 ppm, in very similar conditions, prior-art analogues
[7] = in very similar conditions, dose of 500 and 125 ppm, analogues of WO2009/016222 and WO2008/037789
[8] = very similar conditions, formulated in DMF with 2% of alkylarylpolyglycolether
[9] = in very similar conditions, dose of 500 and 100 ppm, analogues of WO2012/059497

For `Cc1nc(C)c(-c2sccc2CN(C(=O)c2c(C(F)F)nn(C)c2F)C2CC2)s1` [I.11], the logP [1] was 2.88, the efficacy (Puccinia recondita; 500 ppm of active ingredient, wheat plants, evaluated 11 days after inoculation) was “at least 60%” and the “Efficacy (Table C3)” value (Puccinia recondita; dose 500 ppm, wheat, compound of this patent) was 69%.

With `COc1ccsc1-c1cc(C(F)(F)F)cnc1CN(C(=O)c1c(C(F)F)nn(C)c1F)C1CC1` [I.23] the logP [1] was 3.89, the “Efficacy at 100 ppm (Table C1)” value (Puccinia recondita; [2]) was 98% and the “Efficacy at 500 ppm (Table C1)” value (Puccinia recondita; [2]) was 100%.

In the case of `Cn1nc(C(F)F)c(C(=O)N(Cc2ncc(C(F)(F)F)cc2-c2cccs2)C2CC2)c1F` [I.19], the logP [1] is reported as 3.89, the “Efficacy (Table B1)” value (Botrytis cinerea; dose 100 ppm) is reported as 100% and the “Efficacy (Table B1)” value (Botrytis cinerea; dose 500 ppm) is reported as 95%. The “Efficacy (Table G1)” value (Uromyces appendiculatus; dose 100 ppm) was 100% and the “Efficacy (Table G1)” value (Uromyces appendiculatus; dose 500 ppm) was 100%.

In the case of `Cn1cc(C(=O)N(Cc2ncc(C(F)(F)F)cc2-c2ccsc2)C2CC2)c(C(F)F)n1` [I.41], the logP [1] is reported as 3.42, the “Efficacy (Table C2)” value (Puccinia recondita; [3]) is reported as 79% and the “Efficacy (Table C2)” value (Puccinia recondita; [4]) is reported as 93%.

With `Cn1nc(C(F)F)c(C(=O)N(Cc2ncc(C(F)(F)F)cc2-c2ccnc3cc(Cl)ccc23)C2CC2)c1F` [I.29] the logP [1] was 3.78, the “Efficacy (Table B1)” value (Botrytis cinerea; dose 100 ppm) was 39% and the “Efficacy (Table B1)” value (Botrytis cinerea; dose 500 ppm) was 83%. The “Efficacy (Table G1)” value (Uromyces appendiculatus; dose 100 ppm) was 67% and the “Efficacy (Table G1)” value (Uromyces appendiculatus; dose 500 ppm) was 100%.

In the case of `Cc1nc(-c2ccc(Cl)cc2)sc1CN(C(=O)c1cn(C)nc1C(F)F)C1CC1` [45 from WO2008/015189, N-{[2-(4-chlorophenyl)-4-methyl-1,3-thiazol-5-yl]methyl}-N-cyclopropyl-3-(difluoromethyl)-1-methyl-1H-pyrazole-4-carboxamide], the “Efficacy (Table C3)” value (Puccinia recondita; [5]) is reported as 0%.

For `Cn1cc(C(=O)N(Cc2nc(-c3ccc(Cl)cc3)cs2)C2CC2)c(C(F)(F)F)n1` [59 from WO2008/015189, N-{[4-(4-chlorophenyl)-1,3-thiazol-2-yl]methyl}-N-cyclopropyl-1-methyl-3-(trifluoromethyl)-1H-pyrazole-4-carboxamide], the “Efficacy (Table C3)” value (Puccinia recondita; [5]) was 0%.

With `Cc1nn(C)c(F)c1C(=O)N(Cc1ccc(Oc2ccccc2)nc1)C1CC1` [35 from WO-2008/037789, N-cyclopropyl-5-fluoro-1,3-dimethyl-N-[(6-phenoxypyridin-3-yl)methyl]-1H-pyrazole-4-carboxamide] the “Efficacy (Table C2)” value (Puccinia recondita; [6]) was 0%, the “Efficacy (Table C2)” value (Puccinia recondita; [5]) was 0% and the protection (Puccinia recondita; [7]) was “good (at least 70%) to no protection”.

With `Cc1sc(-c2ccccc2)cc1C(C)N(C(=O)c1c(C(F)F)nn(C)c1F)C1CC1` (centres unmarked) [147 from WO2012/059497, N-cyclopropyl-3-(difluoromethyl)-5-fluoro-1-methyl-N-[1-(2-methyl-5-phenyl-3-thienyl)ethyl]-1H-pyrazole-4-carboxamide] the “Efficacy at 100 ppm (Table C1)” value (Puccinia recondita; [8]) was 0%, the “Efficacy at 500 ppm (Table C1)” value (Puccinia recondita; [8]) was 30% and the protection (Puccinia recondita; [9]) was “good (at least 80%) to no protection”.

In the case of `Cn1nc(C(F)F)c(C(=O)N(Cc2cc(-c3ccc(Cl)cc3)no2)C2CC2)c1F` [153 from WO2012/059497, N-{[3-(4-chlorophenyl)-1,2-oxazol-5-yl]methyl}-N-cyclopropyl-3-(difluoromethyl)-5-fluoro-1-methyl-1H-pyrazole-4-carboxamide], the “Efficacy at 100 ppm (Table C1)” value (Puccinia recondita; [8]) is reported as 10%, the “Efficacy at 500 ppm (Table C1)” value (Puccinia recondita; [8]) is reported as 80% and the protection (Puccinia recondita; [9]) is reported as “good (at least 80%) to no protection”.

For `Cc1ccc(-c2cc(C(F)(F)F)cnc2CN(C(=O)c2c(C(F)F)nn(C)c2F)C2CC2)s1` [I.21], the logP [1] was 4.35, the “Efficacy at 100 ppm (Table C1)” value (Puccinia recondita; [2]) was 89% and the “Efficacy at 500 ppm (Table C1)” value (Puccinia recondita; [2]) was 98%.

With `Cn1nc(C(F)F)c(C(=O)N(Cc2ncc(C(F)(F)F)cc2-c2cccnc2)C2CC2)c1F` [CMP2, N-cyclopropyl-3-(difluoromethyl)-5-fluoro-1-methyl-N-{[5-(trifluoromethyl)-3,3′-bipyridin-2-yl]methyl}-1H-pyrazole-4-carboxamide, reference compound] the “Efficacy (Table B1)” value (Botrytis cinerea; dose 100 ppm) was 0%, the “Efficacy (Table B1)” value (Botrytis cinerea; dose 500 ppm) was 0% and the protection (Botrytis cinerea) was “no protection”. For the same compound, the “Efficacy (Table G1)” value (Uromyces appendiculatus; dose 100 ppm) was 0% and the “Efficacy (Table G1)” value (Uromyces appendiculatus; dose 500 ppm) was 0%.

With `Cn1nc(C(F)F)c(C(=O)N(Cc2ncc(C(F)(F)F)cc2-c2coc3ccccc23)C2CC2)c1F` [I.31] the logP [1] was 4.16, the “Efficacy (Table B1)” value (Botrytis cinerea; dose 100 ppm) was 100% and the “Efficacy (Table B1)” value (Botrytis cinerea; dose 500 ppm) was 100%. For the same compound, the “Efficacy at 100 ppm (Table C1)” value (Puccinia recondita; [2]) was 88%, the “Efficacy at 500 ppm (Table C1)” value (Puccinia recondita; [2]) was 94% and the “Efficacy (Table G1)” value (Uromyces appendiculatus; dose 100 ppm) was 78%. For the same compound, the “Efficacy (Table G1)” value (Uromyces appendiculatus; dose 500 ppm) was 97%.

For `Cn1nc(C(F)F)c(C(=O)N(Cc2ncc(C(F)(F)F)cc2-c2ccncc2)C2CC2)c1F` [CMP3, N-cyclopropyl-3-(difluoromethyl)-5-fluoro-1-methyl-N-{[5-(trifluoromethyl)-3,4′-bipyridin-2-yl]methyl}-1H-pyrazole-4-carboxamide, reference compound], the “Efficacy (Table B1)” value (Botrytis cinerea; dose 100 ppm) was 0%, the “Efficacy (Table B1)” value (Botrytis cinerea; dose 500 ppm) was 0% and the protection (Botrytis cinerea) was “no protection”. The “Efficacy (Table G1)” value (Uromyces appendiculatus; dose 100 ppm) was 0% and the “Efficacy (Table G1)” value (Uromyces appendiculatus; dose 500 ppm) was 17%.

For `Cn1nc(C(F)F)c(C(=O)N(Cc2cc3ccccc3n2-c2ccccc2)C2CC2)c1F` [155 from WO2012/059497, N-cyclopropyl-3-(difluoromethyl)-5-fluoro-1-methyl-N-[(1-phenyl-1H-indol-2-yl)methyl]-1H-pyrazole-4-carboxamide], the “Efficacy at 100 ppm (Table C1)” value (Puccinia recondita; [8]) was 0%, the “Efficacy at 500 ppm (Table C1)” value (Puccinia recondita; [8]) was 20% and the protection (Puccinia recondita; [9]) was “good (at least 80%) to no protection”.

For `Cc1nc(-c2ccc(Cl)cc2)sc1CN(C(=O)c1c(C(F)F)nn(C)c1F)C1CC1` [167 from WO2012/059497, N-{[2-(4-chlorophenyl)-4-methyl-1,3-thiazol-5-yl]methyl}-N-cyclopropyl-3-(difluoromethyl)-5-fluoro-1-methyl-1H-pyrazole-4-carboxamide], the “Efficacy at 100 ppm (Table C1)” value (Puccinia recondita; [8]) was 0%, the “Efficacy at 500 ppm (Table C1)” value (Puccinia recondita; [8]) was 0% and the protection (Puccinia recondita; [9]) was “good (at least 80%) to no protection”.

For `Cc1nn(C)c(F)c1C(=O)N(Cc1cn(-c2ccccc2)c2ccccc12)C1CC1` [13 from WO-2009/016222, N-cyclopropyl-5-fluoro-1,3-dimethyl-N-[(1-phenyl-1H-indol-3-yl)methyl]-1H-pyrazole-4-carboxamide], the “Efficacy (Table C2)” value (Puccinia recondita; [6]) was 17%, the “Efficacy (Table C2)” value (Puccinia recondita; [5]) was 78% and the protection (Puccinia recondita; [7]) was “good (at least 70%) to no protection”.

With `Cc1cscc1-c1cc(C(F)(F)F)cnc1CN(C(=S)c1c(C(F)F)nn(C)c1F)C1CC1` [I.37] the logP [1] was 4.67, the “Efficacy (Table C2)” value (Puccinia recondita; [3]) was 86% and the “Efficacy (Table C2)” value (Puccinia recondita; [4]) was 93%.

With `Cn1nc(C(F)F)c(C(=O)N(Cc2cc(-c3cc(F)c(F)c(F)c3)no2)C2CC2)c1F` [165 from WO2012/059497, N-cyclopropyl-3-(difluoromethyl)-5-fluoro-1-methyl-N-{[3-(3,4,5-trifluorophenyl)-1,2-oxazol-5-yl]methyl}-1H-pyrazole-4-carboxamide] the “Efficacy at 100 ppm (Table C1)” value (Puccinia recondita; [8]) was 0%, the “Efficacy at 500 ppm (Table C1)” value (Puccinia recondita; [8]) was 10% and the protection (Puccinia recondita; [9]) was “good (at least 80%) to no protection”.
